Experimental data reported in ChEMBL document CHEMBL1201861, “Genomics of Drug Sensitity in Cancer screening data, Wellcome Trust Sanger Institute”.

Key:
[1] = test system: NCCIT; experiment: SANGER: Inhibition of human NCCIT cell growth in a cell viability assay.; assay type: functional, cell-based
[2] = test system: BC-3; experiment: cells; assay type: functional, cell-based; conditions: Homo sapiens;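 further: cell viability assay measuring growth inhibition of human BC-3 cells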
Description: SANGER: Inhibition of human BC-3 cell growth in a cell viability assay.

[3] = test system: SCC-3; experiment: cells; assay type: functional, cell-based; conditions: Homo sapiens;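 further: cell viability assay measuring inhibition of SCC-3 cell growth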
Description: SANGER: Inhibition of human SCC-3 cell growth in a cell viability assay.

[4] = test system: SIMA; experiment: cells; assay type: functional, cell-based, Homo sapiens; conditions: Homo sapiens, SIMA;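 further: growth inhibition of SIMA cells, measured with a cell viability readout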
Description: SANGER: Inhibition of human SIMA cell growth in a cell viability assay.

[5] = test system: Kasumi 1; experiment: cells; assay type: functional, cell-based; conditions: Homo sapiens;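 further: growth inhibition of human Kasumi-1 cells, read out by a cell viability assay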
Description: SANGER: Inhibition of human KASUMI-1 cell growth in a cell viability assay.

[6] = test system: COR-L279; experiment: SANGER: Inhibition of human COR-L279 cell growth in a cell viability assay.; assay type: functional, cell-based
[7] = test system: MRK-nu-1; experiment: cells; assay type: functional, cell-based; conditions: Homo sapiens;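 further: cell viability assay measuring growth suppression of human MRK-nu-1 cells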
Description: SANGER: Inhibition of human MRK-nu-1 cell growth in a cell viability assay.

[8] = test system: NCI-H716; experiment: cells; assay type: functional, cell-based; conditions: Homo sapiens;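 further: growth inhibition of human NCI-H716 cells, measured by a cell viability assay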
Description: SANGER: Inhibition of human NCI-H716 cell growth in a cell viability assay.

[9] = test system: CAL-148; experiment: cells; assay type: functional, cell-based; conditions: Homo sapiens
Description: SANGER: Inhibition of human CAL-148 cell growth in a cell viability assay.

[10] = test system: RPMI-8866; experiment: cells; assay type: functional, cell-based; conditions: Homo sapiens
Description: SANGER: Inhibition of human RPMI-8866 cell growth in a cell viability assay.

[11] = test system: ARH-77; experiment: cells; assay type: functional, cell-based; conditions: Homo sapiens;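 further: growth inhibition of ARH-77 cells, read out by a cell viability assay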
Description: SANGER: Inhibition of human ARH-77 cell growth in a cell viability assay.

[12] = test system: NCI-H64; experiment: cells; assay type: functional, cell-based; conditions: Homo sapiens;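 further: growth inhibition of NCI-H64 cells, read out with a cell viability assay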
Description: SANGER: Inhibition of human NCI-H64 cell growth in a cell viability assay.

[13] = test system: SK-MEL-1; experiment: cells; assay type: functional, cell-based; conditions: Homo sapiens;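 further: growth inhibition of human SK-MEL-1 cells, read out by a cell viability assay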
Description: SANGER: Inhibition of human SK-MEL-1 cell growth in a cell viability assay.

[14] = test system: MC-CAR; experiment: cells; assay type: functional, cell-based; conditions: Homo sapiens;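 further: growth inhibition of the human MC-CAR cell line, read out by a cell viability assay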
Description: SANGER: Inhibition of human MC-CAR cell growth in a cell viability assay.

[15] = test system: TK-10; experiment: cells; assay type: functional, cell-based, Homo sapiens; conditions: Homo sapiens, TK-10;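 further: growth inhibition of TK-10 cells, read out in a cell viability assay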
Description: SANGER: Inhibition of human TK10 cell growth in a cell viability assay.

[16] = test system: SIG-M5; experiment: cells; assay type: functional, cell-based; conditions: Homo sapiens;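 further: cell viability assay read-out, measuring how strongly growth of cultured human SIG-M5 cells is inhibited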
Description: SANGER: Inhibition of human SIG-M5 cell growth in a cell viability assay.

[17] = test system: NCI-H322M; experiment: cells; assay type: functional, cell-based; conditions: Homo sapiens;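 further: cell viability assay measuring inhibition of growth of human NCI-H322M cells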
Description: SANGER: Inhibition of human NCI-H322M cell growth in a cell viability assay.

[18] = test system: RL95-2; experiment: cells; assay type: functional, cell-based; conditions: Homo sapiens;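 further: RL95-2 growth inhibition determined through a cell viability readout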
Description: SANGER: Inhibition of human RL95-2 cell growth in a cell viability assay.

[19] = test system: P31-FUJ; experiment: cells; assay type: functional, cell-based; conditions: Homo sapiens;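 further: growth inhibition of P31-FUJ cells, read out with a viability assay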
Description: SANGER: Inhibition of human P31-FUJ cell growth in a cell viability assay.

[20] = test system: IM-9; experiment: SANGER: Inhibition of human IM-9 cell growth in a cell viability assay.; assay type: functional, cell-based
[21] = test system: EW-16; experiment: cells; assay type: functional, cell-based, Homo sapiens; conditions: Homo sapiens, EW-16;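 further: growth inhibition of human EW-16 cells, read out as cell viability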
Description: SANGER: Inhibition of human EW-16 cell growth in a cell viability assay.

[22] = test system: IST-SL2; experiment: cells; assay type: functional, cell-based; conditions: Homo sapiens;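 further: growth inhibition of human IST-SL2 cells, read out by a cell viability assay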
Description: SANGER: Inhibition of human IST-SL2 cell growth in a cell viability assay.

[23] = test system: KM-H2; experiment: cells; assay type: functional, cell-based; conditions: Homo sapiens;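 further: growth inhibition of KM-H2 cells, read out by a cell viability assay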
Description: SANGER: Inhibition of human KM-H2 cell growth in a cell viability assay.

[24] = test system: NCI-H1694; experiment: cells; assay type: functional, cell-based; conditions: Homo sapiens;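 further: cell viability assay measuring inhibition of growth in human NCI-H1694 cells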
Description: SANGER: Inhibition of human NCI-H1694 cell growth in a cell viability assay.

[25] = test system: DMS-153; experiment: cells; assay type: functional, cell-based; conditions: Homo sapiens
Description: SANGER: Inhibition of human DMS-153 cell growth in a cell viability assay.

[26] = test system: NCI-H524; experiment: cells; assay type: functional, cell-based; conditions: Homo sapiens;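 further: growth inhibition of human NCI-H524 cells, read out through a cell viability assay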
Description: SANGER: Inhibition of human NCI-H524 cell growth in a cell viability assay.

[27] = test system: NCI-H1963; experiment: cells; assay type: functional, cell-based; conditions: Homo sapiens;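 further: cell growth inhibition of the human line, determined with a cell viability assay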
Description: SANGER: Inhibition of human NCI-H1963 cell growth in a cell viability assay.

[28] = test system: NALM-6; experiment: cells; assay type: functional, cell-based; conditions: Homo sapiens;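 further: growth inhibition of NALM-6 cells, read out with a cell viability assay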
Description: SANGER: Inhibition of human NALM-6 cell growth in a cell viability assay.

[29] = test system: NCI-H2081; experiment: cells; assay type: functional, cell-based; conditions: Homo sapiens;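 further: growth inhibition of human NCI-H2081 cells, read out with a cell viability assay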
Description: SANGER: Inhibition of human NCI-H2081 cell growth in a cell viability assay.

[30] = test system: NCI-H748; experiment: cells; assay type: functional, cell-based; conditions: Homo sapiens;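 further: growth inhibition of NCI-H748 cells, measured by a cell viability assay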
Description: SANGER: Inhibition of human NCI-H748 cell growth in a cell viability assay.

[31] = test system: HCE-T; experiment: cells; assay type: functional, cell-based, Homo sapiens; conditions: Homo sapiens, HCE-T;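 further: cell viability assay read-out, reporting inhibition of HCE-T cell growth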
Description: SANGER: Inhibition of human HCE-T cell growth in a cell viability assay.

[32] = test system: CHP-126; experiment: cells; assay type: functional, cell-based; conditions: Homo sapiens
Description: SANGER: Inhibition of human CHP-126 cell growth in a cell viability assay.

[33] = test system: SNU-16; experiment: cells; assay type: functional, cell-based; conditions: Homo sapiens;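 further: growth inhibition of human SNU-16 cells, determined with a cell viability readout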
Description: SANGER: Inhibition of human NCI-SNU-16 cell growth in a cell viability assay.

[34] = test system: KARPAS-299; experiment: cells; assay type: functional, cell-based; conditions: Homo sapiens
Description: SANGER: Inhibition of human KARPAS-299 cell growth in a cell viability assay.

[35] = test system: ST486; experiment: SANGER: Inhibition of human ST486 cell growth in a cell viability assay.; assay type: functional, cell-based

| SMILES | IC50 [1] | IC50 [2] | IC50 [3] | IC50 [4] | IC50 [5] | IC50 [6] | IC50 [7] | IC50 [8] | IC50 [9] | IC50 [10] | IC50 [11] | IC50 [12] | IC50 [13] | IC50 [14] | IC50 [15] | IC50 [16] | IC50 [17] | IC50 [18] | IC50 [19] | IC50 [20] | further results |
| --- | --- | --- | --- | --- | --- | --- | --- | --- | --- | --- | --- | --- | --- | --- | --- | --- | --- | --- | --- | --- | --- |
| CCc1nc(N)nc(N)c1-c1ccc(Cl)cc1 [PYRIMETHAMINE] | 6.93 µM | 19.5 µM | 1.84 µM | > 20 µM | > 20 µM | 6.37 µM | > 20 µM | > 20 µM | > 20 µM | 9.7 µM | 19.5 µM | > 20 µM | > 20 µM | > 20 µM | 7.42 µM | 7.98 µM | > 20 µM | 15.7 µM | > 20 µM | > 20 µM | IC50 [21]: 15.8 µM; IC50 [22]: 11.4 µM; IC50 [23]: 12 µM; IC50 [24]: > 20 µM; IC50 [25]: > 20 µM; IC50 [26]: > 20 µM; IC50 [27]: > 20 µM; IC50 [28]: 19.8 µM; IC50 [29]: > 20 µM; IC50 [30]: > 20 µM; IC50 [31]: > 20 µM; IC50 [32]: > 20 µM; IC50 [33]: > 20 µM; IC50 [34]: > 20 µM; IC50 [35]: 9.31 µM |
| O=C(/C=C/c1ccccc1)NC(NC(=S)Nc1cccc2cccnc12)C(Cl)(Cl)Cl (stereo not given) [SALUBRINAL] | 11.6 µM | 14.8 µM | > 16 µM | > 16 µM | > 16 µM | > 16 µM | 7.75 µM | > 16 µM | > 16 µM | > 16 µM | > 16 µM | > 16 µM | > 16 µM | > 16 µM | > 16 µM | > 16 µM | > 16 µM | > 16 µM | > 16 µM | > 16 µM | IC50 [21]: > 16 µM; IC50 [22]: 11.8 µM; IC50 [23]: > 16 µM; IC50 [24]: > 16 µM; IC50 [25]: > 16 µM; IC50 [26]: > 16 µM; IC50 [27]: > 16 µM; IC50 [28]: 13.1 µM; IC50 [29]: > 16 µM; IC50 [30]: > 16 µM; IC50 [31]: > 16 µM; IC50 [32]: > 16 µM; IC50 [33]: > 16 µM; IC50 [34]: > 16 µM; IC50 [35]: 8.54 µM |
| CNC(=O)c1cc(Oc2ccc(NC(=O)Nc3ccc(Cl)c(C(F)(F)F)c3)cc2)ccn1 [SORAFENIB] | > 4 µM | > 4 µM | > 4 µM | > 4 µM | > 4 µM | > 4 µM | 3.61 µM | > 4 µM | > 4 µM | > 4 µM | > 4 µM | > 4 µM | > 4 µM | > 4 µM | > 4 µM | 2.42 µM | > 4 µM | > 4 µM | > 4 µM | > 4 µM | IC50 [21]: > 4 µM; IC50 [22]: > 4 µM; IC50 [23]: > 4 µM; IC50 [24]: > 4 µM; IC50 [25]: > 4 µM; IC50 [26]: > 4 µM; IC50 [27]: > 4 µM; IC50 [28]: > 4 µM; IC50 [29]: > 4 µM; IC50 [30]: > 4 µM; IC50 [31]: > 4 µM; IC50 [32]: > 4 µM; IC50 [33]: > 4 µM; IC50 [34]: > 4 µM; IC50 [35]: 3.84 µM |
